Literature values in patent US20160228385A1, “PURIFIED CBD AND CBDA, AND METHODS, COMPOSITIONS AND PRODUCTS EMPLOYING CBD OR CBDA” (COLORADO CAN LLC, priority 2015, published 2016).

Tested on: human subjects seeking to quit smoking
Details: CBD administered via an inhaler, compared to no reduction with placebo inhaler

## C=C(C)[C@@H]1CCC(C)=C[C@H]1c1c(O)cc(CCCCC)cc1O [CBD, Cannabidiol]
  reduction of cigarette use: 40%
